From patent US8435982B2, “Pharmaceutical formulation containing lipophilic drugs and milk as a solubilizing/dispensing agent and method for the preparation thereof” (Pharmathen S.A., priority 2007, dated 2013)
Converted amounts (≈) assume the structure as drawn. Where two headings read alike, the source gives them in different places. Values belong to the compound of their own block, whether it stands above or below them.

Experiments:
Type in all cases: physicochemical
[1] = Solubility studies in alkaline buffers; details: for solubility at 48 h: 25 °C, thermodynamic from solid
Protocol: Solubility studies were performed at 25° C. in various buffers. More specifically:
An excess quantity of mefenamic acid powder was added to a 25 ml flask containing 15 ml of the appropriate aqueous medium. The flasks were placed in a thermostated water bath at 25° C. under constant shaking rate of 100 rpm for 48 h. The filtrated samples of mefenamic acid were monitored at 285 nm. Calibration curves were performed for every buffer, prior to measurements.

[2] = Final pH of drug-buffer solution solubilized/dispersed in milk
Protocol: The appropriate buffer was added in milk gradually under magnetic stirring and the increase of the milk pH was measured. […] Subsequently, experiments were performed in order to evaluate if an active ingredient initially dissolved in buffer, when solubilized/dispersed in milk, is suitable for oral administration. […] The buffer volume was increased by 0.5 ml each time and the pH values after each addition were measured.

[3] = Stability studies of NSAID alkaline buffer solutions; details: for total amount of drug compared to the initial value: alkaline buffer solution pH 12
Protocol: The drugs were dissolved in the following buffers: 0.2 M NaH2PO4—NaOH pH 12 and 0.05 M glycine-NaOH pH 12. A weighted amount of drug, corresponding to its therapeutic dose, was dissolved in the appropriate volume of alkaline buffer. […] Also, the pH values of the aqueous alkaline NSAIDs solutions were measured before storage and at the predetermined time points.

Compound: Cc1cccc(Nc2ccccc2C(=O)O)c1C [Mefenamic acid]
solubility (FIG. 1) ([1]; 25° C., nominal pH range of 11-12, 0.2M NaH2PO4—NaOH buffer): greatly enhanced | Final pH ([2]; dose 50 mg, 10 mg/mL, 5 mL NaH2PO4/NaOH 0.2M (nominal pH=12) in 150 ml […] fat long duration milk): 6.81 | Final pH ([2]; dose 100 mg, 10 mg/mL, 10 mL NaH2PO4/NaOH 0.2M (nominal pH=12) in 150 ml […] fat long duration milk): 7.01 | Final pH ([2]; dose 500 mg, 25 mg/mL, 20 mL NaH2PO4/NaOH 0.2M (nominal pH=12) in 150 ml […] fat long duration milk): 7.73 | Final pH ([2]; dose 500 mg, 40 mg/mL, 12.5 mL NaH2PO4/NaOH 0.2M (nominal pH=12) in 150 ml […] fat long duration milk): 7.35

Compound: CS(=O)(=O)Nc1ccc([N+](=O)[O-])cc1Oc1ccccc1 [Nimesulide]
total amount of drug compared to the initial value ([3]; accelerated stability studies, 30° C.): 99.7-100.2% | total amount of drug compared to the initial value ([3]; accelerated stability studies, 40° C.): 101-118% | change of pH (compared to the initial value) ([3]; both long term and accelerated studies, all three temperatures): 98.8-100.2% | % change of drug amount ([3]; long term and accelerated stability studies): within acceptable ranges | total amount of drug compared to the initial value ([3]; long term studies at 25° C. (3 and 6 months)): 96.5-107%

Compound: Cc1c(Cl)cccc1Nc1ccccc1C(=O)O [Tolfenamic acid]
solubility at 48 h ([1]; pH 12, aqueous buffer): 35.1 mg/mL (≈ 134 mM) | Final pH ([2]; dose 100 mg, 10 mg/mL, 10 mL NaH2PO4/NaOH 0.2M (nominal pH=12) in 150 ml […] fat long duration milk (tolfenamic acid)): 7.42 | Final pH ([2]; dose 100 mg, 20 mg/mL, 5 mL NaH2PO4/NaOH 0.1M (nominal pH=12) in 150 ml […] fat long duration milk): 6.75 | Final pH ([2]; dose 100 mg, 20 mg/mL, 5 mL NaH2PO4/NaOH 0.2M (nominal pH=12) in 150 ml […] fat long duration milk): 7.03 | Final pH ([2]; dose 200 mg, 20 mg/mL, 10 mL NaH2PO4/NaOH 0.2M (nominal pH=12) in 150 ml […] fat long duration milk): 7.34 | Final pH ([2]; dose 300 mg, 25 mg/mL, 12 mL NaH2PO4/NaOH 0.2M (nominal pH=12) in 150 ml […] fat long duration milk): 7.40

Other lines, results leading:

solubility at 48 h ([1]; aqueous buffer, buffer glycine/NaOH at nominal pH=12, read-out: solubility): 15.4 mg/mL (≈ 43.8 mM)
Compound: Cc1cnc(NC(=O)C2=C(O)c3ccccc3S(=O)(=O)N2C)s1 [Meloxicam]

solubility at 48 h ([1]; phosphate buffer, aqueous buffer, buffer 0.1M NaH2PO4/NaOH at nominal pH=12, read-out: solubility): 14.3 mg/mL (≈ 42.5 mM)
Compound: CN1C(C(=O)Nc2ccccn2)=C(O)c2sccc2S1(=O)=O [Tenoxicam]
